SMILES strings stand for the structures. Values after ≈ are worked out from the molar mass of the structure shown.

The source of these data is publication PMC11436758, “Computer-aided drug design to generate a unique antibiotic family” (Nature Communications, 2024).

Holding throughout (assay type): cell-based
The subject of one data set is E. coli ATCC 25922. Put plainly: MIC alone and MIC of colistin in combination with DNM compounds. The settings on record: compound alone, bracket after colistin value is a range (0.25-2). The procedure:
(§1) The medium employed for the assay was Mueller Hinton II Broth (MHB II; Becton-Dickinson, Sparks, MD, USA). Agar plates used for the organisms were trypticase soy agar plus 5% sheep blood (BD; Sparks, MD, USA). MIC assay plates were prepared using the CLSI broth microdilution procedure. Automated liquid handlers (Multidrop 384, Biomek 2000 and Biomek FX) were used to conduct serial dilutions and liquid transfers. A standardized inoculum of each organism was prepared per CLSI methods. Suspensions were prepared to equal a 0.5 McFarland standard, followed by a 1:20 dilution in test media. The inocula were dispensed into sterile reservoirs divided by length (Beckman Colter) and the Biomek 2000 was used to inoculate the plates. Daughter plates were placed on the Biomek 2000 work surface in reverse orientation so that inoculation took place from low to high drug concentration. The Biomek 2000 delivered 10 μL of the diluted suspension into each well. These inoculations yielded a final cell concentration in the daughter plates of ~5 × 10^5 colony-forming units/mL in each well. The wells of the daughter plates ultimately contained 185 μL of broth, 5 μL of drug solution, and 10 μL of bacterial inoculum. Plates were covered with a sterile lid on the top plate, placed in plastic bags, and incubated at 35 °C for ~18 h. The microplates were viewed from the bottom using a plate viewer and the MIC was read. The MIC was recorded as the lowest concentration of drug that inhibited visible growth of the organism. Uninoculated solubility control plates were also observed for evidence of drug precipitation.
(§2) Compound K. pneumoniae A. baumannii E. coli P. aeruginosa […]
(§3) Supplementary Table 3. Minimum inhibitory concentration (MIC; µg/ml) of DNM
(§4) compounds that show potential synergy in combination with colistin. […]

Another data set deals with K. pneumoniae MMX8390. Described as above. The settings on record: compound alone. The procedure:
as §1, §2, §3, §4

The subject of the next data set is A. baumannii ATCC 19606. Described as above. The note with it: compound alone. The method, then:
as §1, §2, §3, §4

The subject of a further data set is P. aeruginosa ATCC 27853. Described as above. The settings on record: compound alone, bracket after colistin value is a range (0.25-4). The method, then:
as §1, §2, §3, §4

Another data set deals with K. pneumoniae. The data set is described as follows: FIC checkerboard testing with colistin (FICI). The note with it: in combination with colistin. The procedure:
For FIC testing, test ranges were set based on broth microdilution MIC test data. The wells of a standard 96-well microdilution plate (Costar) were filled with 150 μL of water in columns 2 through 12. A 300 μL aliquot of colistin at 40X the highest final concentration to be tested was added to each well in Column 1 of the plate. The Biomek 2000 was used to make eleven 2-fold serial dilutions in the “combination agent parental” plate from columns 2 through 11. The wells of the “test-agent parental” plate were filled with 150 μL of DMSO in rows B through H. Row A of this plate was filled with 300 μL of the DNM compound stock solution at 40X the highest final concentration to be tested. Serial 2-fold dilutions were then prepared from row B-G by hand using a multichannel pipette. The “daughter plates” were loaded with 180 μL of CAMHB using the Multidrop 384. The Biomek FX was used to transfer 5 μL of colistin from each well of the comparator parental plate to the corresponding well in all the daughter plates in a single step. Then a 5 μL aliquot from each well of the test agent parental plate was transferred by hand into the corresponding well of the daughter plate. Row H and Column 12 each contained serial dilutions of test agent and the combination agent alone, respectively, for determination of the MIC. This procedure was repeated for all test agents evaluated in combination with comparators. A standardized inoculum of each organism was prepared per CLSI methods. Colonies were picked from the primary plate and a suspension was prepared to equal a 0.5 McFarland turbidity standard. The suspensions were additionally diluted 1:20 in broth. A 10 μL standardized inoculum was delivered into each well using the Biomek 2000 from low to high concentration. These inoculations yielded a final cell concentration in the daughter plates of […]. Thus, the wells of the daughter plates ultimately contained […], 5 μL of test agent, 5 μL of the colistin, and 10 μL of inoculum. […] Plates were covered with a lid on the top plate, placed in plastic bags, and incubated at 35 °C for ~18 h. Plates were viewed from the bottom using a plate viewer. Prepared reading sheets were marked for the MIC of the combination agent, the MIC of test agent, and the wells of the growth-no growth interface for wells containing test agent and combination agent at varying ratios. […] For each relevant row of the panel, the FIC index (FICI) and mean FICI was calculated by: FICdrug A/MICdrug A + FICdrug B/MICdrug B = FIC index (FICI). The mean FICI for the combination was interpreted as follows: <0.5 = synergy, >0.5–4 = additive/indifferent, and >4 = antagonism. Microbiological measurements were performed and evaluated with Micromyx LLC (Kalamazoo, MI, USA).

The subject of the next data set is COS7 cells. Put plainly: in vitro. The note with it: COS7 cells. The procedure: (§5) Stock solutions of the test agents were prepared in DMSO (40 mg/mL) and stored at −20 °C until use. AlamarBlue HS™ cell viability reagent was acquired from Invitrogen (Cat # A50100, Carlsbad, CA). COS7 and HEK293 cells (obtained from ATCC) were cultured and tested at 37 °C in a 5% CO2/100% humidity environment in DMEM media supplemented with 10% fetal bovine serum. Cells were trypsinized, centrifuged, resuspended in cell media, counted on a hemacytometer, and diluted to an appropriate cell density to give the desired number of cells per 300 μl media. Cells were then loaded into 48-well cell culture plates (3548; Corning, Inc.); 300 μl/well at 60,000 cells per well. The cell density was determined in preliminary tests to give linear AlamarBlue HS™ readings over a 3.5 h period for HEK293 cells and 2 h period for COS7 cells after 2 days of growth; 2 wells per plate were loaded with 300 μl/well of cell-free media to provide background readings. Plates were cultured overnight, after which test agent solutions were prepared in media at the highest test concentration (100 ug/mL) and at five serial dilutions, each containing 0.25% DMSO and 0.125% Kolliphor® EL (Cat# 27963, Sigma Aldrich). The compounds concentrations were then loaded in separate columns via 300 μl/well. […] Normalized values representing the amount of AlamarBlue converted to its […] form were calculated for each well using background-corrected absorbances as described by the Alamar-Blue HS protocol information packet available from Invitrogen Technical Support. The fraction of control viability for each agent concentration with each cell line was then determined by the ratio of normalized values for the treated wells to the control wells. […] Values were determined by linear interpolation of fraction of control growth against concentration for the test agent concentrations.

The next data set concerns HEK293 cells. The data set is described as follows: in vitro. The method, then: as §5

The term MIC denotes the lowest concentration that inhibits growth of the organism. In general, LC50 refers to the concentration lethal to half of the exposed cells or organisms. On to `Cc1cc(Cl)ccc1-c1cc(C(N)=O)sc1-c1ccc(Cl)cc1C` [DNM0652], for which the MIC in the data set on E. coli ATCC 25922, in the data set with K. pneumoniae MMX8390, with A. baumannii ATCC 19606 and in the data set with P. aeruginosa ATCC 27853 was greater than 64 µg/mL each time. The “Mean FICI” value in the data set with K. pneumoniae (K. pneumoniae (ATCC 13883)) was found to be 0.19; with K. pneumoniae (K. pneumoniae (FDA-CDC AR-BANK0040)), 0.41; in the data set on K. pneumoniae (K. pneumoniae (FDA-CDC AR-BANK0046)) it was 0.4; with K. pneumoniae (K. pneumoniae (FDA-CDC AR-BANK0047)), 0.3; with K. pneumoniae (K. pneumoniae (FDA-CDC AR-BANK0087)), 0.38; in the data set with K. pneumoniae (K. pneumoniae (FDA-CDC AR-BANK0097)), 0.34. Also, the “Mean FICI” value came out at 0.32 in the data set on K. pneumoniae (K. pneumoniae (FDA-CDC AR-BANK0106)); 0.35 in the data set on K. pneumoniae (K. pneumoniae (FDA-CDC AR-BANK0109)); 0.32 in the data set on K. pneumoniae (K. pneumoniae (FDA-CDC AR-BANK0125)); 0.29 in the data set with K. pneumoniae (K. pneumoniae (FDA-CDC AR-BANK0364)); 0.28 with K. pneumoniae (K. pneumoniae (FDA-CDC AR-BANK0454)). The “interpretation of mean FICI” value in the data set with K. pneumoniae (each strain of the Klebsiella panel) is listed as “Synergy”. The LC50 in the data set with COS7 cells (24 h) was 37 µg/mL (≈ 98.3 µM); with HEK293 cells (HEK293 cells, 24 h), 35 µg/mL (≈ 93 µM). The “IC50 (cell viability)” value in the data set on COS7 cells (24 hrs) was found to be 37.434 µg/mL (≈ 99.5 µM); with HEK293 cells (Hek293 cells, 24 hrs) it was 35.256 µg/mL (≈ 93.7 µM). For the same compound, the “Log IC50 (cell viability)” value with HEK293 cells (Hek293 cells, 24 hrs) was 4.547.
